Cc1ccc2ccccc2c1
Conditions | solubility (mole fraction)
in 1,4-dioxane, 278.25 K | 0.468
in 1,4-dioxane, 283.25 K | 0.508
in 1,4-dioxane, 288.35 K | 0.575
in 1,4-dioxane, 293.25 K | 0.65
in 1,4-dioxane, 298.35 K | 0.726
in 1,4-dioxane, 303.25 K | 0.817
in acetone, 278.45 K | 0.218
in acetone, 283.25 K | 0.286
in acetone, 288.35 K | 0.368
in acetone, 293.25 K | 0.484
in acetone, 298.35 K | 0.588
in acetone, 303.25 K | 0.741
in ethanol, 278.25 K | 0.0389
in ethanol, 283.25 K | 0.058
in ethanol, 288.35 K | 0.109
in ethanol, 293.25 K | 0.148
in ethanol, 298.35 K | 0.287
in ethanol, 303.25 K | 0.458
in ethylene glycol, 278.25 K | 0.00742
in ethylene glycol, 283.25 K | 0.00811
in ethylene glycol, 288.35 K | 0.00864
in ethylene glycol, 293.25 K | 0.00963
in ethylene glycol, 298.35 K | 0.0102
in ethylene glycol, 303.25 K | 0.0115
in isopropanol, 278.25 K | 0.0276
in isopropanol, 283.25 K | 0.0508
in isopropanol, 288.35 K | 0.077
in isopropanol, 293.25 K | 0.133
in isopropanol, 298.35 K | 0.233
in isopropanol, 303.25 K | 0.43
in n-butanol, 278.25 K | 0.0596
in n-butanol, 283.25 K | 0.0794
in n-butanol, 288.35 K | 0.13
in n-butanol, 293.25 K | 0.223
in n-butanol, 298.35 K | 0.37
in n-butanol, 303.25 K | 0.68
in n-butyl acetate, 278.15 K | 0.621
in n-butyl acetate, 283.15 K | 0.673
in n-butyl acetate, 288.15 K | 0.729
in n-butyl acetate, 293.15 K | 0.787
in n-butyl acetate, 298.15 K | 0.849
in n-butyl acetate, 303.15 K | 0.951
in n-heptane, 278.15 K | 0.502
in n-heptane, 283.15 K | 0.579
in n-heptane, 288.15 K | 0.65
in n-heptane, 293.15 K | 0.726
in n-heptane, 298.15 K | 0.831
in n-heptane, 303.15 K | 0.906
in n-hexane, 278.95 K | 0.283
in n-hexane, 283.25 K | 0.348
in n-hexane, 288.35 K | 0.443
in n-hexane, 293.25 K | 0.55
in n-hexane, 298.35 K | 0.643
in n-hexane, 303.25 K | 0.811
